US12543738B2 (Bayer Aktiengesellschaft, priority 2020, dated 2026)

Tests used:
Alternaria brassicae = assay: In vivo preventive test on Alternaria brassicae (leaf spot on radish or cabbage); conditions: 144 h, 500 ppm of active ingredient, preventive spray on radish or cabbage, evaluated 6 days after inoculation, read-out: efficacy
Procedure: (§1) The active ingredients were made soluble and homogenized in a mixture of Dimethyl sulfoxide/Acetone//Tween® 80 and then diluted in water to the desired concentration. The young plants of radish or cabbage were treated by spraying the active ingredient prepared as described above. Control plants were treated only with an aqueous solution of Acetone/Dimethyl sulfoxide/Tween® 80. After 24 hours, the plants were contaminated by spraying the leaves with an aqueous suspension of Alternaria brassicae spores.

Sphaerotheca fuliginea = assay: In vivo preventive test on Sphaerotheca fuliginea (powdery mildew on cucurbits); conditions: Podosphaera fuliginea, 192 h; 500 ppm of active ingredient; preventive spray on gherkin; evaluated 8 days after inoculation; read-out: efficacy
Procedure: as §1, with “gherkin” for “radish or cabbage”, “Sphaerotheca fuliginea” for “Alternaria brassicae”

Botrytis cinerea = assay: In vivo preventive test on Botrytis cinerea (grey mould); conditions: 500 ppm of active ingredient, preventive spray on gherkin or cabbage, evaluated 4 to 5 days after inoculation, read-out: efficacy
Procedure: as §1, with “gherkin” for “radish”, “Botrytis cinerea” for “Alternaria brassicae”

Septoria tritici = Septoria tritici in vitro cell test; format: cell-based; conditions: Zymoseptoria tritici, 168 h; 20 ppm of active ingredient; liquid culture, 7 days incubation; read-out: efficacy (inhibition of fungal growth)
Procedure: • Solvent: DMSO • Culture medium: 1 g KH2PO4 (VWR), 1 g K2HPO4 (VWR), 0.5 g Urea (VWR), 3 g KNO3 (Prolabo), 10 g saccharose (VWR), 0.5 g MgSO4, 7H2O (Sigma), 0.07 g CaCl2, 2H2O (Prolabo), 0.2 mg MnSO4, H2O (Sigma), 0.6 mg CuSO4, 5H2O (Sigma), 7.9 mg ZnSO4, 7H2O (Sigma), 0.1 mg H3BO3 (Merck), 0.14 mg NaMoO4, 2H2O (Sigma), 2 mg thiamine (Sigma), 0.1 mg biotine (VWR), 4 mg FeSO4, 7H2O (Sigma), QSP 1 liter • Inoculum: spore suspension Fungicides were solubilized in DMSO and the solution used to prepare the required range of concentrations. […] A spore suspension of S. tritici was prepared and diluted to the desired spore density. Fungicides were evaluated for their ability to inhibit spore germination and mycelium growth in liquid culture assay. The compounds were added in the desired concentration to the culture medium with spores. […] Inhibition of fungal growth was determined by comparing the absorbance values in wells containing the fungicides with the absorbance in control wells without fungicides.

[1] = tested on: Colletotrichum lindemuthianum; assay: Colletotrichum lindemuthianum in vitro cell test; format: cell-based; conditions: 144 h, 20 ppm of active ingredient, liquid culture, 6 days incubation, read-out: efficacy (inhibition of fungal growth)
Procedure: (§2) • Solvent: DMSO • Culture medium: 14.6 g anhydrous D-glucose (VWR), 7.1 g Mycological Peptone (Oxoid), 1.4 g granulated Yeast Extract (Merck), QSP 1 liter • Inoculum: spores suspension Fungicides were solubilized in DMSO and the solution used to prepare the required range of concentrations. […] A spore suspension of C. lindemuthianum was prepared and diluted to the desired spore density. Fungicides were evaluated for their ability to inhibit spores germination and mycelium growth in liquid culture assay. The compounds were added in the desired concentration to the culture medium with spores. After 6 days incubation, fungi-toxicity of compounds was determined by spectrometric measurement of mycelium growth. Inhibition of fungal growth was determined by comparing the absorbance values in wells containing the fungicides with the absorbance in control wells without fungicides.

Fusarium culmorum = Fusarium culmorum in vitro cell test; format: cell-based; conditions: 96 h, 20 ppm of active ingredient, liquid culture, 4 days incubation, read-out: efficacy (inhibition of fungal growth)
Procedure: • Solvent: DMSO • Culture medium: 14.6 g anhydrous D-glucose (VWR), 7.1 g Mycological Peptone (Oxoid), 1.4 g granulated Yeast Extract (Merck), QSP 1 liter • Inoculum: spore suspension • Fungicides were solubilized in DMSO and the solution used to prepare the required range of concentrations. The final concentration of DMSO used in the assay was ≤1%.
A spore suspension of F. culmorum was prepared and diluted to the desired spore density.
Fungicides were evaluated for their ability to inhibit spore germination and mycelium growth in liquid culture assay. The compounds were added in the desired concentration to the culture medium with spores. After 4 days incubation, fungi-toxicity of compounds was determined by spectrometric measurement of mycelium growth. Inhibition of fungal growth was determined by comparing the absorbance values in wells containing the fungicides with the absorbance in control wells without fungicides.

Alternaria alternata = Alternaria alternata in vitro cell test; format: cell-based; conditions: 120 h, 20 ppm of active ingredient, liquid culture, 5 days incubation, read-out: efficacy (inhibition of fungal growth)
Procedure: as §2, with “of A. alternata” for “of C. lindemuthianum”, “inhibit spore” for “inhibit spores”, “After 5” for “After 6”

Pyricularia Oryzae = assay: microbe, parasite or virus in culture; format: cell-based; conditions: 120 h, read-out: efficacy (inhibition of fungal growth)
Pyrenophora teres = assay: In vivo preventive test on Pyrenophora teres (net blotch on barley); conditions: 240 h, 500 ppm of active ingredient, preventive spray on barley, evaluated 10 days after inoculation, read-out: efficacy
Procedure: as §1, with “barley” for “radish or cabbage”, “Pyrenophora teres” for “Alternaria brassicae”

[2] = Measurement of LogP values by HPLC on reversed phase columns (EEC directive 79/831 Annex V.A8); format: physicochemical; conditions: method [a]: LC-UV, acidic range, 0.1% formic acid in water and acetonitrile; compounds of formula (I-1), Table 1
Procedure: Calibration was done with straight-chain alkan2-ones (with 3 to 16 carbon atoms) with known LogP values (measurement of LogP values using retention times with linear interpolation between successive alkanones). Lambda-max-values were determined using UV-spectra from 200 nm to 400 nm and the peak values of the chromatographic signals

[3] = tested on: Colletotrichum lindemuthianum; assay: In vivo preventive test on Colletotrichum lindemuthianum (leaf spot on bean); conditions: 168 h, 500 ppm of active ingredient, preventive spray on bean, evaluated 7 days after inoculation, read-out: efficacy
Procedure: as §1, with “bean” for “radish or cabbage”, “Colletotrichum lindemuthianum” for “Alternaria brassicae”

| SMILES | pest or weed control at 500 ppm (Alternaria brassicae) | pest or weed control at 500 ppm (Sphaerotheca fuliginea) | pest or weed control at 500 ppm (Botrytis cinerea) | inhibition at 20 ppm (Septoria tritici) | inhibition at 20 ppm [1] | inhibition at 20 ppm (Fusarium culmorum) | inhibition at 20 ppm (Alternaria alternata) | inhibition at 20 ppm (Pyricularia Oryzae) | pest or weed control at 500 ppm (Pyrenophora teres) | chromatographic logP [2] | pest or weed control at 500 ppm [3] |
| --- | --- | --- | --- | --- | --- | --- | --- | --- | --- | --- | --- |
| Cc1ccc(CC2CON=C(c3cc(C)nnc3Oc3cccc(Cl)c3)N2)c(C)c1 (racemic) [Compound I-002, (5RS)-3-[3-(3-chlorophenoxy)-6-methylpyridazin-4-yl]-5-(2,4-dimethylbenzyl)-5,6-dihydro-4H-1,2,4-oxadiazine] | 90 to 100% | 90 to 100% | 90 to 100% | 90 to 100% | 90 to 100% | 90 to 100% | 90 to 100% | 90 to 100% | 90 to 100% | 3.77 | 90 to 100% |
| Cc1ccc(CC2CON=C(c3cc(C)nnc3Oc3cccc(Cl)c3F)N2)c(Br)c1 (racemic) [Compound I-006, (5RS)-5-(2-bromo-4-methylbenzyl)-3-[3-(3-chloro-2-fluorophenoxy)-6-methylpyridazin-4-yl]-5,6-dihydro-4H-1,2,4-oxadiazine] | 90 to 100% | 90 to 100% | 90 to 100% | 90 to 100% | 90 to 100% | 90 to 100% | 90 to 100% | 90 to 100% | 90 to 100% | 4.01 | 90 to 100% |
| C[C@@H](F)c1cc(C2=NOC[C@@H](Cc3ccc(Cl)cc3Cl)N2)c(Oc2cccc(C3CC3)c2F)nn1 (racemic) [Compound I-018, (5RS)-3-{3-(3-cyclopropyl-2-fluorophenoxy)-6-[(1RS)-1-fluoroethyl]pyridazin-4-yl}-5-(2,4-dichlorobenzyl)-5,6-dihydro-4H-1,2,4-oxadiazine] | 90 to 100% | 90 to 100% | 90 to 100% | 90 to 100% | 90 to 100% | 90 to 100% | 90 to 100% | 90 to 100% | 90 to 100% | 4.74 | 90 to 100% |
| Cc1ccc(CC2CON=C(c3cc(C)nnc3Oc3cccc(C4(F)CC4)c3)N2)c(C)c1 (racemic) [Compound I-015, (5RS)-5-(2,4-dimethylbenzyl)-3-{3-[3-(1-fluorocyclopropyl)phenoxy]-6-methylpyridazin-4-yl}-5,6-dihydro-4H-1,2,4-oxadiazine] | 90 to 100% | 90 to 100% | 90 to 100% |  | 90 to 100% | 80 to 89% | 90 to 100% | 90 to 100% | 90 to 100% | 3.78 | 90 to 100% |
| C=C(OCC)c1cc(C2=NOCC(Cc3ccc(Cl)cc3Cl)N2)c(Oc2cccc(C3CC3)c2)nn1 (racemic) [Compound I-019, (5RS)-3-[3-(3-cyclopropylphenoxy)-6-(1-ethoxyvinyl)pyridazin-4-yl]-5-(2,4-dichlorobenzyl)-5,6-dihydro-4H-1,2,4-oxadiazine] | 90 to 100% | 90 to 100% | 90 to 100% |  | 90 to 100% | 70 to 79% | 90 to 100% | 90 to 100% | 90 to 100% | 5.19 | 90 to 100% |
| Cc1cc(C)cc(CC2CON=C(c3cc(C)nnc3Oc3cccc(Cl)c3)N2)c1 (racemic) [Compound I-009, (5RS)-3-[3-(3-chlorophenoxy)-6-methylpyridazin-4-yl]-5-(3,5-dimethylbenzyl)-5,6-dihydro-4H-1,2,4-oxadiazine] |  |  |  | 90 to 100% | 90 to 100% | 90 to 100% | 90 to 100% | 90 to 100% |  | 3.87 |  |
| CC(O)c1cc(C2=NOCC(Cc3ccc(Cl)cc3Cl)N2)c(Oc2cccc(C3CC3)c2F)nn1 (stereo not drawn) [Compound I-023, 1-{6-(3-cyclopropyl-2-fluorophenoxy)-5-[5-(2,4-dichlorobenzyl)-5,6-dihydro-4H-1,2,4-oxadiazin-3-yl]pyridazin-3-yl}ethanol] | 90 to 100% | 90 to 100% | 90 to 100% |  | 90 to 100% | 90 to 100% | 90 to 100% | 90 to 100% | 90 to 100% | 3.87 | 90 to 100% |
